Where two headings read alike, the source gives them in different places.
Assays:
J774.A1 macrophages [1] = assay: TNF-α production in J774.A1 macrophages (ELISA); format: cell-based, murine; settings: for fold induction at 50 µM: Mus musculus, J774.A1, 24 h; for Effect of Boc-2 (FPR/FPRL1 antagonist) on compound-induced TNF-α production: pretreated 5 min with Boc 2 (40 μM); for Effect of Boc-2 (FPR/FPRL1 antagonist) on compound-induced TNF-α production / Effect of WRW4 (FPRL1 antagonist) on compound-induced TNF-α production: then 50 μM compound 24 hr; for Effect of WRW4 (FPRL1 antagonist) on compound-induced TNF-α production: pretreated 5 min with WRW4 (10 μM); for Effect of PTX on induced TNF-α production: pretreated 30 min with PTX (0.4 and 1 μg/ml), then Compound 50 μM or LPS 50 ng/ml for 12 hr; for Effect of ActD or CHX on compound-induced TNF-α production: pretreated with ActD 1 μg/ml or CHX 5 μg/ml 30 min, then 50 μM compound 12 hr
FPRL1 = molecular target: T1, FPRL1 (Homo sapiens, UniProt P25090); assay: Ca2+ mobilization in RBL-FPRL1 cells; format: cell-based
T1 construct: expressed in transfected cells; host or cells: rat basophilic leukemia RBL-2H3 cells (RBL-FPRL1)
T1 sequence (P25090 1-351): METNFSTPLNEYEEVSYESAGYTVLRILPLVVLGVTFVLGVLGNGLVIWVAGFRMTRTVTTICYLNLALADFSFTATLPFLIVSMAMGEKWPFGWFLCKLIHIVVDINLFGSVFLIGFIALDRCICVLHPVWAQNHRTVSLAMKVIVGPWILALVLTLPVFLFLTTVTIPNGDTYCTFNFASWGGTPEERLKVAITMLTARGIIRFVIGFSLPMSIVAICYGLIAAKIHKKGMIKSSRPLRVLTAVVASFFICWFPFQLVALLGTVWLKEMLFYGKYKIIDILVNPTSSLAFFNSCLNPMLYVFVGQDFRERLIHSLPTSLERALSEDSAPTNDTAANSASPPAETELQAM

human neutrophils [2] = assay: Chemotaxis assay, human neutrophils; format: cell-based; settings: percent of response induced by 50 nM IL-8
murine neutrophils = assay: Chemotaxis assay, murine neutrophils; format: cell-based; settings: percent of response induced by 50 nM KC
human neutrophils [3] = assay: ROS production in human neutrophils (L-012 luminescence); format: cell-based; settings: Neutrophil, concentration that enhanced ROS production by 50% above background, read-out: ROS Production AC50, Human PMN
Description: J774.A1 macrophages were plated at density of 1.5×10^5 cells/well in wells of 96-well flat-bottom white microtiter plates (Corning Incorporated, Costar). After 16 hr (5% CO2, 37° C.), the media was aspirated, and test compounds or vehicle (final DMSO concentration of 1%) were added in fresh media (DMEM without phenol red, supplemented with 3% (v/v) FBS). After 5 min, the media was replaced by HBSS+ containing 4 μM L-012 and 8 μg/ml HRP, and luminescence was monitored for 120 min (2-min intervals) at 37° C. using a Fluoroscan Ascent FL microtiter plate reader (Thermo Electron, Waltham, Mass.). The curve of light intensity (in relative luminescence units) was plotted against time, and the area under the curve was calculated as total luminescence. The percent activation of ROS was calculated as follows: % activation=(sample-DMSO control)/DMSO control×100. The minimal compound concentration that enhanced ROS production by 50% above background control cells (AC50) was determined by graphing the % activation of ROS vs. log [test compound]. Each curve was determined using five to seven compound concentrations. Human neutrophils were plated at density of 5×10^5 cells/well in wells of 96-well flatbottom white microtiter plates, and compounds under investigation or vehicle (final DMSO concentration of 1%) were added. After 5 min, the media was replaced by HBSS+ containing […] L-012, and luminescence was monitored for 120 min (2-min intervals) at 37° C. using a Fluoroscan Ascent FL microtiter plate reader. The results were analysed as described above to determine % activation and AC50 values.

J774.A1 macrophages [4] = assay: ROS production in J774.A1 macrophages (L-012 luminescence); format: cell-based; settings: Mus musculus, concentration that enhanced ROS production by 50% above background, read-out: ROS Production AC50, Murine Mφ
Description: (§1) Murine macrophage J774.A1 cells were cultured in DMEM supplemented with 10% (v/v) heat-inactivated fetal bovine serum (FBS), 10 mM HEPES, 100 μg/ml streptomycin, and 100 U/ml penicillin. Cells were grown to confluence in sterile tissue culture flasks and gently detached by scraping. Human monocyte/macrophage MonoMac6 cells (DSMZ, Germany) were cultured in RPMI 1640 supplemented with 10% (v/v) FBS, 10 μg/ml bovine insulin, 100 μg/ml streptomycin, and 100 U/ml penicillin. Rat basophilic leukemia (RBL-2H3) cells transfected with human FPR (RBL-FPR) or FPRL1 (RBL-FPRL1) were cultured in DMEM supplemented with 20% (v/v) FBS, 10 mM HEPES, 100 μg/ml streptomycin, and 100 U/ml penicillin, as described previously (Nanamori et al., 2004). Human monocytic THP-1 cells were cultured in RPMI 1640 medium supplemented with 10% (v/v) FBS, 100 μg/ml streptomycin, and 100 U/ml penicillin. All cell cultures were grown at 37° C. in a humidified atmosphere containing 5% CO2. Cell number and viability were assessed microscopically using trypan blue exclusion.
J774.A1 macrophages were plated at density of 1.5×10^5 cells/well in wells of 96-well flat-bottom white microtiter plates (Corning Incorporated, Costar). […] After 5 min, the media was replaced by HBSS+ containing 4 μM L-012 and 8 μg/ml HRP, and luminescence was monitored for 120 min (2-min intervals) at 37° C. using a Fluoroscan Ascent FL microtiter plate reader (Thermo Electron, Waltham, Mass.). The curve of light intensity (in relative luminescence units) was plotted against time, and the area under the curve was calculated as total luminescence. The percent activation of ROS was calculated as follows: % activation=(sample-DMSO control)/DMSO control×100. The minimal compound concentration that enhanced ROS production by 50% above background control cells (AC50) was determined by graphing the % activation of ROS vs. log [test compound]. Each curve was determined using five to seven compound concentrations. […] The results were analysed as described above to determine % activation and AC50 values.

J774.A1 macrophages [5] = assay: IL-6 production in J774.A1 macrophages (ELISA); format: cell-based, murine; settings: J774.A1, 24 hr
Description: (§2) Cells were treated for 24 hr with DMSO control, test compound, or LPS and mouse TNF-α or IL-6 and human TNF-α enzyme-linked immunosorbent assay (ELISA) kits (BD Biosciences Pharmigen) were used to detect these cytokines in the cell supernatants. Cytokine concentration was determined by extrapolation from the TNF-α/IL-6 standard curve, according to the manufacturer's protocol.
(§3) For treatments, cells were plated in 96-well microtiter plates at 2×10^5 cells/well (J774.A1, MonoMac6) or 6×10^4 cells/well (human monocyte-derived macrophages) using their respective culture media, except FBS was reduced to 3% (v/v). After incubation overnight (5% CO2, 37° C.), the media were removed and replaced with fresh media containing test compounds.

J774.A1 cells = assay: Cytotoxicity assay (CellTiter-Glo); format: cell-based, murine; settings: J774.A1, 24 hr
Description: Cytotoxicity was analyzed with a CellTiter-Glo Luminescent Cell Viability Assay Kit (Promega, Inc., Madison, Wis.), according to the manufacturer's protocol. Briefly, J774.A1 cells were cultured at a density of 3×10^4 cells/well with the test compounds for 24 hr at 37° C. and 5% CO2, substrate was added, and luminescence signal in the samples was analyzed with a Fluoroscan Ascent FL.

[6] = tested on: murine peritoneal macrophages; assay: TNF-α production in murine peritoneal macrophages (ELISA); format: cell-based; settings: 24 hr, various concentrations
Description: Bone marrow leukocytes were flushed from tibias and femurs of BALB/c mice with HBSS− supplemented with 0.1% BSA and 1% glucose and the neutrophils were purified on Percoll density gradients, as previously described (Schepetkin et al., 2007). Peritoneal macrophages were isolated from BALB/c mice 4 days after intraperitoneal injection of 1 ml saline containing 100 μg concanavalin A, as described previously (Schepetkin et al., 2005). Peritoneal exudate cells were suspended in RPMI 1640 containing 10% (v/v) FBS with antibiotics (penicillin and streptomycin) and incubated at 37° C. in 100 mm tissue culture dishes for 1 h. Adherent peritoneal macrophages were harvested and cultured with the compounds under investigation for 24 hr at 37° C. and 5% CO2.
as §2

[7] = tested on: human monocytic cells THP-1; assay: TNF-α production in THP-1 cells (ELISA); format: cell-based; settings: 24 hr, various concentrations
Description: as §1, with “All cell cultures were grown at 37° C. in a humidified atmosphere containing 5% CO2.” left out
as §2

[8] = tested on: human MonoMac6 macrophages; assay: TNF-α production in MonoMac6 cells (ELISA); format: cell-based; settings: 24 hr, various concentrations
[9] = tested on: human monocyte-derived macrophages; assay: TNF-α production in human monocyte-derived macrophages (ELISA); format: cell-based; settings: 24 hr, various concentrations
Description: as §2, §3

J774.A1 macrophages [10] = assay: cells; settings: Mus musculus, J774.A1, read-out: Ca2+ Mobilization EC50, Murine Mφ
Description: Murine macrophage J774.A1 cells were cultured in DMEM supplemented with 10% (v/v) heat-inactivated fetal bovine serum (FBS), 10 mM HEPES, 100 μg/ml streptomycin, and 100 U/ml penicillin. Cells were grown to confluence in sterile tissue culture flasks and gently detached by scraping. […] All cell cultures were grown at 37° C. in a humidified atmosphere containing 5% CO2. Cell number and viability were assessed microscopically using trypan blue exclusion.

human neutrophils [11] = assay: Ca2+ mobilization in human neutrophils (FLIPR Calcium 3); settings: Neutrophil
human FPR = molecular target: T2, human FPR (Homo sapiens, UniProt P21462); assay: Ca2+ mobilization in RBL-FPR cells; format: cell-based
T2 construct: expressed in transfected cells; host or cells: rat basophilic leukemia RBL-2H3 cells (RBL-FPR)
T2 sequence (P21462 1-350): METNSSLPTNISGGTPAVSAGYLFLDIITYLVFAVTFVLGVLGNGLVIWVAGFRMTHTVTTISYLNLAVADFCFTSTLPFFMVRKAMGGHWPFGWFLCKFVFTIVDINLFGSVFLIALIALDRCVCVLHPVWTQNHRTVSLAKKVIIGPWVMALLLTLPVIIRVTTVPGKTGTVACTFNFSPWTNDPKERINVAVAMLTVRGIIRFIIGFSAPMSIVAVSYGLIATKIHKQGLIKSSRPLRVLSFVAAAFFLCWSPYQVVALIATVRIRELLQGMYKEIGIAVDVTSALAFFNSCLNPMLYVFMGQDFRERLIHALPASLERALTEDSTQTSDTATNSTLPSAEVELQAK

[12] = relative fold of activation compared to vehicle (DMSO) control for 50 μM compound, N.A. = no activity was observed, read-out: TNF-α production
[13] = read-out: Ca2+ Mobilization EC50, Human PMN

SMILES	fold induction at 50 µM (J774.A1 macrophages [1]; [12])	Effect of Boc-2 (FPR/FPRL1 antagonist) on compound-induced TNF-α production (J774.A1 macrophages [1])	Effect of WRW4 (FPRL1 antagonist) on compound-induced TNF-α production (J774.A1 macrophages [1])	Effect of PTX on induced TNF-α production (J774.A1 macrophages [1])	Effect of ActD or CHX on compound-induced TNF-α production (J774.A1 macrophages [1])	EC50 (FPRL1)	Chemotaxis (%), Human PMN (human neutrophils [2])	Chemotaxis (%), Murine PMN (murine neutrophils)	AC50 (human neutrophils [3])	AC50 (J774.A1 macrophages [4])	IL-6 production (J774.A1 macrophages [5])	Effect on cell viability (J774.A1 cells)	TNF-α production in murine peritoneal macrophages [6]	TNF-α production in THP-1 cells [7]	TNF-α production in MonoMac6 cells [8]	TNF-α production in human monocyte-derived macrophages [9]	EC50 (J774.A1 macrophages [10])	EC50 (human neutrophils [11]; [13])	EC50 (human neutrophils [11]; read-out: [Ca2+]i EC50)	other results
O=C(N/N=C/c1ccc(-c2cccc(Br)c2)o1)c1cccnc1 [Compound 1]	40 to 50	inhibited	inhibited	significantly inhibited	completely inhibited	19.1 µM	67.8 ± 9.4%	68.9 ± 7.8%	0.2 ± 0.02 µM	25.4 ± 4 µM	induced secretion of IL-6	had no effect on cell viability	induced TNF-α production in a concentration-dependent manner	induced TNF-α production in a concentration-dependent manner	induced TNF-α production in a concentration-dependent manner	induced TNF-α production in a concentration-dependent manner	24.1 ± 4.1 µM	0.3 ± 0.2 µM	0.3 µM	fold induction at 50 µM (J774.A1 macrophages [1]; 50 μM compound, above response to vehicle (DMSO) control, Table 5 numbering, N.A. = inactive, read-out: FI (fold-increase of macrophage TNF-α production)): 50; Determined class of macrophage TNF-α inducing activity (J774.A1 macrophages [1]; experimentally determined class): Active
O=C(N/N=C/c1ccc(-c2cccc(C(F)(F)F)c2)o1)c1ccc(F)cc1 [Compound 2, 4-fluoro-benzoic acid [5-(3-trifluoromethyl-phenyl)-2-furyl]methylene-hydrazide]	30 to 40	inhibited	inhibited	significantly inhibited	completely inhibited	18.3 µM	91.3 ± 1.6%	58.0 ± 1.4%	0.2 ± 0.04 µM	8.6 ± 2.7 µM	induced secretion of IL-6	had no effect on cell viability	induced TNF-α production in a concentration-dependent manner	induced TNF-α production in a concentration-dependent manner	induced TNF-α production in a concentration-dependent manner	induced TNF-α production in a concentration-dependent manner	2.3 ± 0.15 µM	0.6 ± 0.4 µM	0.6 µM	–
COc1cc(/C=N\NC(=O)c2ccc3c(c2)OCO3)ccc1OCc1ccccc1 [Compound 6]	5 to 8	–	–	–	–	–	98.0 ± 3.4%	174.8 ± 9.2%	38.6 ± 3.3 µM	26.9 ± 3.9 µM	failed to induce macrophage IL-6 production	–	–	–	–	–	4.2 ± 0.8 µM	0.63 ± 0.39 µM	0.63 µM	TNF-α production, primary screening of agonists AG 1-26 (J774.A1 macrophages [1]; murine J774.A1 macrophages): induced modest levels of TNF-α production; EC50 (human FPR): 6.6 µM
